Experimental data from paper PMC6272646, “Understanding the Physicochemical Properties of Mitragynine, a Principal Alkaloid of Mitragyna speciosa, for Preclinical Evaluation” (Molecules, 2015).

Experiments:
[1] = pKa determination, conventional UV spectrophotometer method; format: physicochemical; conditions: aqueous buffer
Source text: (§1) The instruments employed were UV spectrophotometer 8453 UV-Vis Diode Array (Agilent, Santa Clara, CA, USA), and Multiskan* GO Microplate Spectrophotometer (Thermo Scientific, Waltham, MA, USA). Data were captured using the Thermo Scientific SkanIt Software (Thermo Scientific, Version 3.2). Buffer Maker Software (version 1.0.1.55, BPP Marcin Borkowski, Marki, Poland,) was used for preparation of buffers with constant ionic strength for pKa determination. The pH-meter employed throughout the study was a PH 211 Hanna (Padova, Italy) equipped with a combined glass electrode.
(§2) pKa determination was carried out using conventional UV and microplate spectrophotometer methods. Acetic acid, tris base and sodium carbonate were used to prepare stable buffers in the pH range of 3 to 12. The buffers were prepared to give a final buffer molarity of 0.01 M. Either NaOH or HCl were used for pH adjustment of the various buffers, whose ionic strength was kept constant at 0.02 by addition of NaCl.
Five mL aliquots of buffer of various pH were transferred into separate tubes. To each tube, mitragynine stock solution in acetonitrile (4 mg/mL) was added to give a final drug concentration of 20 µg/mL. The percentage of organic content in final buffer preparation was kept below 1%. The prepared solutions were immediately scanned in the range of 200–400 nm.
(§3) Stock solution of mitragynine at 0.5 mg/mL was prepared in acetonitrile. Ten microliters of the stock solution was transferred into individual test tubes and diluted with 1.0 mL buffer of various pH to give a final concentration of 5 μg/mL. For absorbance spectrum analysis, 250 μL of the various pH buffer solutions spiked with drug were placed in a 96-well quartz UV-transparent microplate and immediately scanned in the range of 200–400 nm at a scanning rate of 200 nm/s in triplicates. The pKa was calculated with equation pKa = pH + log (d − dm/di − d), for basic compound, where di is the absorbance of the ionised species, d is the absorbance of the solution tested and dm is the absorbance of the neutral species.

[2] = pKa determination, microplate spectrophotometer method; format: physicochemical; conditions: aqueous buffer
Source text: as §1, §2, §3

[3] = Stability in buffers pH 4, 7, 9 (percentage recovered); format: physicochemical; conditions: for percentage recovered: 20 µg/mL
Method: The HPLC system consisted of a Jasco delivery pump (Tokyo, Japan) equipped with autosampler connected to a Waters 2487 detector (Milford, MA, USA) coupled to Jasco Chromnav software (Version 2.0, Tokyo, Japan). Chromatographic separation was performed on a C8 Agilent Eclipse plus (4.6 mm i.d. × 250 mm, 5-μm particle size; Apple Valley, MN, USA). The HPLC-UV method was adapted from our previous study and revalidated for the present HPLC system. The method was employed to quantify mitragynine in partition coefficient, stability, dissolution and solubility studies.
For solubility studies, an excess of mitragynine was added to 1.0 mL each of distilled water or buffers at pH 4, 7 and 9. The test tubes were placed in a water bath shaker at 37 degrees Celsius at 100 cycles/min for 48 h until equilibrium. The samples were centrifuged at 3000 rpm for 5 min and supernatant was taken for quantification of mitragynine by HPLC-UV. […] A 0.1 mL aliquot was collected from each buffer system at intervals of 0, 0.5, 6.0 and 24.0 h for determination of mitragynine. Mitragynine concentrations were expressed as percentage recovered. All experiments were performed in triplicates.

[4] = In vitro release (dissolution) from capsules filled with mitragynine pure standard; format: physicochemical; conditions: up to 2 h, capsule, basket method, 50 rpm, 37 °C
Method: Hard shell gelatin capsules filled with mitragynine pure standard were used in the in vitro dissolution study. In order to characterize the release of mitragynine, drug release profile was generated, in which mitragynine release values were determined as a function of time. The US pharmacopoeia I (basket) method was used for the in vitro dissolution study. SGF (pH 1.2) and SIF (pH 6.8) were prepared without enzymes. These media were used for the dissolution study, respectively. The capsule filled with mitragyine was introduced into 500 mL of dissolution medium. The capsule was agitated at 50 rpm at 37 °C. An aliquot (1 mL) of sample was withdrawn at predetermined time intervals of 5, 10, 15, 30, 40, 60, 90 and 120 min after onset of the dissolution. The samples were filtered through 0.45 um PTFE syringe filters, diluted with ACN (1:1) and the drug concentration was determined by the validated RP-HPLC-UV method. Samples were analyzed along with QC samples.

[5] = rats, cited from earlier work
[6] = tested on: mice; set-up: method as in Macko et al, 15; conditions: mitragynine salt solution, ref Macko et al, 15; cited from earlier work
[7] = set-up: method as in PMID 24841968; conditions: cited from earlier work
[8] = Stability in simulated gastric fluid (SGF, with enzymes); conditions: for Concentration Found in SGF: SGF pH ~1.2 with pepsin, 37 °C

**Q.** With `CC[C@@H]1CN2CCc3c([nH]c4cccc(OC)c34)[C@@H]2C[C@@H]1/C(=C\OC)C(=O)OC` [mitragynine] as the compound, how does the pKa ([1]; UV Spectrophotometer, Day 1, read-out: pKa, interday repeatability) read?
**A.** 8.18

**Q.** What about the pKa ([1]; UV Spectrophotometer, Day 2, read-out: pKa, interday repeatability) of the same compound?
**A.** 8.11

**Q.** What about the pKa ([1]; UV Spectrophotometer, Day 3, read-out: pKa, interday repeatability) of the same compound?
**A.** 8.15

**Q.** What about the pKa ([1]; pH 7.52, target pH 7.6, actual pH 7.52, 20 µg/mL, 248 nm, read-out: pKa) of the same compound?
**A.** 8.02

**Q.** And the pKa ([1]; pH 7.6, conventional UV method, mean over pH 7.6-9.0, read-out: pKa (Mean ± SD))?
**A.** 8.11 ± 0.11

**Q.** What about the pKa ([1]; pH 7.78, target pH 7.8, actual pH 7.78, 20 µg/mL, 248 nm, read-out: pKa) of the same compound?
**A.** 8.16

**Q.** What about the pKa ([1]; pH 7.96, target pH 8.0, actual pH 7.96, 20 µg/mL, 248 nm, read-out: pKa) of the same compound?
**A.** 8.17

**Q.** And the pKa ([1]; pH 8.13, target pH 8.2, actual pH 8.13, 20 µg/mL, 248 nm, read-out: pKa)?
**A.** 8.18

**Q.** And the pKa ([1]; pH 8.34, target pH 8.4, actual pH 8.34, 20 µg/mL, 248 nm, read-out: pKa)?
**A.** 8.13

**Q.** And the pKa ([1]; pH 8.45, target pH 8.6, actual pH 8.45, 20 µg/mL, 248 nm, read-out: pKa)?
**A.** 8.05

**Q.** And the pKa ([1]; pH 8.71, target pH 8.8, actual pH 8.71, 20 µg/mL, 248 nm, read-out: pKa)?
**A.** 8.27

**Q.** What about the pKa ([1]; pH 8.92, target pH 9.0, actual pH 8.92, 20 µg/mL, 248 nm, read-out: pKa) of the same compound?
**A.** 7.93

**Q.** And the pKa ([2]; Microplate Spectrophotometer, Day 1, read-out: pKa, interday repeatability)?
**A.** 8.18

**Q.** And the pKa ([2]; Microplate Spectrophotometer, Day 2, read-out: pKa, interday repeatability)?
**A.** 8.1

**Q.** What about the pKa ([2]; Microplate Spectrophotometer, Day 3, read-out: pKa, interday repeatability) of the same compound?
**A.** 8.12

**Q.** And the pKa ([2]; pH 7.55, target pH 7.6, actual pH 7.55, 5 µg/mL, 248 nm, read-out: pKa)?
**A.** 8.09

**Q.** And the pKa ([2]; pH 7.6, microplate method, mean over pH 7.6-9.0, read-out: pKa (Mean ± SD))?
**A.** 8.08 ± 0.04

**Q.** What about the pKa ([2]; pH 7.76, target pH 7.8, actual pH 7.76, 5 µg/mL, 248 nm, read-out: pKa) of the same compound?
**A.** 8.11

**Q.** What about the pKa ([2]; pH 7.94, target pH 8.0, actual pH 7.94, 5 µg/mL, 248 nm, read-out: pKa) of the same compound?
**A.** 8.03

**Q.** What about the pKa ([2]; pH 8.15, target pH 8.2, actual pH 8.15, 5 µg/mL, 248 nm, read-out: pKa) of the same compound?
**A.** 8.09

**Q.** And the pKa ([2]; pH 8.32, target pH 8.4, actual pH 8.32, 5 µg/mL, 248 nm, read-out: pKa)?
**A.** 8.1

**Q.** What about the pKa ([2]; pH 8.5, target pH 8.6, actual pH 8.50, 5 µg/mL, 248 nm, read-out: pKa) of the same compound?
**A.** 8.03

**Q.** And the pKa ([2]; pH 8.66, target pH 8.8, actual pH 8.66, 5 µg/mL, 248 nm, read-out: pKa)?
**A.** 8.15

**Q.** And the pKa ([2]; pH 8.8, target pH 9.0, actual pH 8.80, 5 µg/mL, 248 nm, read-out: pKa)?
**A.** 8.06

**Q.** What about the “stability in buffer (in words)” value ([3]; pH 4) of the same compound?
**A.** appears to degrade over time

**Q.** What about the percentage recovered ([3]; pH 4 buffer, 0.5 h) of the same compound?
**A.** 100.6 ± 0.3%

**Q.** And the percentage recovered ([3]; pH 4 buffer, 6 h)?
**A.** 91.8 ± 1.0%

**Q.** And the percentage recovered ([3]; pH 4 buffer, 24 h)?
**A.** 88.8 ± 1.4%

**Q.** What about the “stability in buffer (in words)” value ([3]; pH 7 and 9, 24 h) of the same compound?
**A.** stable

**Q.** And the percentage recovered ([3]; pH 7 buffer, 0.5 h)?
**A.** 99.2 ± 0.4%

**Q.** And the percentage recovered ([3]; pH 7 buffer, 6 h)?
**A.** 96.1 ± 1.9%

**Q.** What about the percentage recovered ([3]; pH 7 buffer, 24 h) of the same compound?
**A.** 101.9 ± 0.9%

**Q.** And the percentage recovered ([3]; pH 9 buffer, 0.5 h)?
**A.** 101.3 ± 2.6%

**Q.** And the percentage recovered ([3]; pH 9 buffer, 6 h)?
**A.** 97.8 ± 0.3%

**Q.** What about the percentage recovered ([3]; pH 9 buffer, 24 h) of the same compound?
**A.** 95.5 ± 2.5%

**Q.** What about the “drug released (dissolution)” value ([4]; SGF pH 1.2 without enzymes) of the same compound?
**A.** 80%

**Q.** And the “drug released (dissolution)” value ([4]; SIF pH 6.8 without enzymes)?
**A.** 22%

**Q.** What about the Cmax ([5]; oral dose 20–50 mg/kg) of the same compound?
**A.** 400 to 2300 ng/mL

**Q.** What about the half-life ([5]; oral dose 20–50 mg/kg) of the same compound?
**A.** 3.8 to 9.4 h

**Q.** What about the absolute oral bioavailability [5] of the same compound?
**A.** ≈ 3%

**Q.** What about the “dose up to which no adverse reactions were reported” value [6] of the same compound?
**A.** 920 mg/kg

**Q.** What about the “drug loss in SGF” value [7] of the same compound?
**A.** 26%

**Q.** And the “Concentration Found in SGF” value ([8]; 0 min)?
**A.** 18720 ± 50 ng/mL

**Q.** What about the “RD (relative difference vs time 0) in SGF” value ([8]; 10 min) of the same compound?
**A.** −0.21%

**Q.** What about the “Concentration Found in SGF” value ([8]; 10 min) of the same compound?
**A.** 18680 ± 230 ng/mL

**Q.** What about the “RD (relative difference vs time 0) in SGF” value ([8]; 20 min) of the same compound?
**A.** −20.00%

**Q.** What about the “Concentration Found in SGF” value ([8]; 20 min) of the same compound?
**A.** 14980 ± 880 ng/mL

**Q.** What about the “RD (relative difference vs time 0) in SGF” value ([8]; 30 min) of the same compound?
**A.** −22.5%

**Q.** What about the “Concentration Found in SGF” value ([8]; 30 min) of the same compound?
**A.** 14540 ± 580 ng/mL

**Q.** What about the “Concentration Found in SGF” value ([8]; 40 min) of the same compound?
**A.** 14190 ± 370 ng/mL

**Q.** What about the “RD (relative difference vs time 0) in SGF” value ([8]; 50 min) of the same compound?
**A.** −24.19%

**Q.** And the “Concentration Found in SGF” value ([8]; 50 min)?
**A.** 14110 ± 220 ng/mL

**Q.** And the “RD (relative difference vs time 0) in SGF” value ([8]; 60 min)?
**A.** −25.53%

**Q.** What about the “Concentration Found in SGF” value ([8]; 60 min) of the same compound?
**A.** 13940 ± 200 ng/mL

**Q.** And the “stability in SGF (in words)” value ([8]; SGF pH ≈ 1.2, 37 °C)?
**A.** not stable

**Q.** And the “relative deviation / drug loss in SGF” value ([8]; from the 20 min time point onwards)?
**A.** greater than 20%
